From BindingDB's records for doi:10.1016/j.bmcl.2010.07.026 (Daiichi Sankyo, 2010)

Target: 3-phosphoinositide-dependent protein kinase 1 (Homo sapiens) (UniProt O15530)
Assay: Inhibition of recombinant PDK1 after 15 mins

Row | Compound | IC50
1 | O=C(NCCN1CCCC1)c1ccc(-c2cnc3ccc(NCc4ccc(Cl)c(Cl)c4)nn23)cc1 [4-(6-(3,4-dichlorobenzylamino)imidazo[1,2-b]pyridazin-3-yl)-N-(2-(pyrrolidin-1-yl)ethyl)benzamide] | > 100 µM
2 | CN(C)CCNC(=O)c1ccc(-c2cnc3ccc(NCC4CC4)nn23)cc1 [4-(6-(cyclopropylmethylamino)imidazo[1,2-b]pyridazin-3-yl)-N-(2-(dimethylamino)ethyl)benzamide] | > 100 µM
3 | O=C(NC[C@@H]1CCCN1)c1ccc(-c2cnc3ccc(NCc4ccc(Cl)c(Cl)c4)nn23)cc1 [(S)-4-(6-(3,4-dichlorobenzylamino)imidazo[1,2-b]pyridazin-3-yl)-N-(pyrrolidin-2-ylmethyl)benzamide] | > 100 µM
4 | O=C(NC[C@@H]1CCCN1)c1ccc(-c2cnc3ccc(NCc4cccc(Cl)c4)nn23)cc1 [(S)-4-(6-(3-chlorobenzylamino)imidazo[1,2-b]pyridazin-3-yl)-N-(pyrrolidin-2-ylmethyl)benzamide] | > 100 µM
5 | O=C(NC[C@@H]1CCCN1)c1ccc(-c2cnc3ccc(NCC4CC4)nn23)cc1 [(S)-4-(6-(cyclopropylmethylamino)imidazo[1,2-b]pyridazin-3-yl)-N-(pyrrolidin-2-ylmethyl)benzamide] | > 100 µM
